In patent publication US20100021895A1, “Vectors for Inducing Homozygous Mutations and Methods of Using Same” (priority 2006, published 2010):

System: mouse embryonic stem cell clones, each containing a neomycin resistance gene (Neo) inserted by the GTR1.3 gene trap retrovirus
Test: Carcinogen-induced LOH: frequency of colony formation in 2.0 mg/ml G418
Format: cell-based
Conditions: for enhanced colony formation, average: at least 25 entrapment lines
Procedure: Carcinogen-induced LOH was measured in a panel of 53 mouse embryonic stem cell clones, each containing a neomycin resistance gene (Neo) inserted into a different cellular gene (FIG. 9) by the GTR1.3 gene trap retrovirus. Gene entrapment by GTR1.3 involves selection for inserted Neo sequences that can splice to the 3′ ends of cellular genes (Lin et al.,). The disrupted genes were identified by sequencing Neo-gene fusion transcripts and were localized on the mouse genome. Previous studies have shown that cells homozygous for GTR1.3-induced mutations can be selected from heterozygous cells simply by selecting for resistance to higher concentrations of G418, a method first shown to select for homozygous mutations induced by gene targeting (15). Mitotic recombination appears to be the preferred mechanism of spontaneous LOH involving Neo genes inserted in ES cells (17) and LOH involving other genes and cell types in vivo (12, 13). LOH doubles the number of Neo genes per cell and thus allows moderately resistant cells to acquire resistance to higher concentrations of G418. The frequencies of spontaneous LOH measured at the 53 different sites ranged from 1.3×10^−5 to 1.2×10^−4 (Table 3), similar to those reported for other inserted neomycin resistance genes (15, 17) in ES cells and for loci such as TK and APRT in other cell types (12, 13).
A variety of chemical agents were tested for their ability to enhance the frequencies at which mutant cells survive in 2.0 mg/ml G418. Methyl-nitrosurea (MNU) is an alkylating agent that produces a variety of mono-methylated DNA adducts, hydroxyurea (HU) stalls DNA replication complexes, doxorubicin interferes with DNA synthesis, methothrexate is a competitive inhibitor of dihydrofolate reductase but is not genotoxic, diepoxybutane and mitomycin C induce inter-strand DNA crosslinks, UV irradiation causes intra- and inter-strand pyrimidine dimmers, and ethidium bromide intercalates between DNA strands to damage DNA (For additional information about these agents see http://toxnet.nlm.nih.gov and http://lisntweb.swan.ac.uk/cmgt/index.htm). […] The fold-increase for MNU and HU ranged from 39-123 and 18-68, respectively (Table 3). The optimal concentrations of each agent to stimulate colony formation with minimal toxicity (<5% loss of cell viability) were determined in advance (FIG. 13). […] Each of these agents was tested two or more times on at least 25 entrapment lines.
Serially diluted cells were plated onto 150 mm plates containing drug-free media and allowed to attach overnight. Unattached cells were removed and media containing the indicated concentrations of methyl-nitrosourea, hydroxyurea, ethidium bromide, doxorubicin, methotrexate, diepoxybutane, or mitomycin C was put onto cells for 4 hours (or cells were exposed to ultraviolet light in the absence of media and allowed to recover in drug-free media for 4 hours). Cells were then rinsed twice with drug-free media and selection media containing 0.0, 0.3, or 2.0 mg/ml G418 was put onto cells. After 12 days of selection, the number of colonies surviving was counted and the frequency of colony formation was determined by dividing the number of colonies obtained from 2.0 mg/ml G418 selection to that obtained from parallel experiments with 0.3 mg/ml G418 selection. TK gene loss was assessed following selection in media containing 2 μg/ml gancyclovir.
Table 3. The frequency of colony formation in high concentrations of G418. The frequency of colony formation is listed for all 53 clones examined. Frequency was determined by dividing the number of colonies surviving 2.0 mg/ml G418 selection to the number surviving parallel experiments with 0.3 mg/ml G418 selection, and is the average of at least 3 independent experiments for each clone. Standard deviations, which ranged from 5 to 70% of the mean values, have been omitted for clarity. […]

`CO[C@@]12[C@H](COC(N)=O)C3=C(C(=O)C(C)=C(N)C3=O)N1C[C@@H]1N[C@@H]12` [mitomycin C] was tested, and the “enhanced colony formation, average” value (mitomycin C 50 ng/mL) was 14 fold.

In the case of `CC[n+]1c(-c2ccccc2)c2cc(N)ccc2c2ccc(N)cc21` [EtBr, ethidium bromide], the “effect on colony formation in high G418” value (ethidium bromide 25 μg/ml) is reported as “no significant effect”.

In the case of `C1OC1C1CO1` (stereo not drawn) [diepoxybutane], the “survival of mutant ES cells in media containing 2.0 mg/ml G418” value (ES cells heterozygous for Xrcc5 entrapment mutation, 4 hours with 0.5 mM methyl-nitrosourea, 0.25 mM hydroxyurea or 100 ng/ml diepoxybutane) is reported as “enhances the survival” and the “enhanced colony formation, average” value (diepoxybutane 100 ng/mL) is reported as 16 fold.

For `COc1cccc2c1C(=O)c1c(O)c3c(c(O)c1C2=O)C[C@@](O)(C(=O)CO)C[C@@H]3O[C@H]1C[C@H](N)[C@H](O)[C@H](C)O1` [doxorubicin], the “enhanced colony formation, average” value (doxorubicin 0.1 μM) was 15 fold.

For `CN(Cc1cnc2nc(N)nc(N)c2n1)c1ccc(C(=O)N[C@@H](CCC(=O)O)C(=O)O)cc1` [methothrexate], the “effect on colony formation in high G418” value (methothrexate 50 μM) was “no significant effect”.
